Data published in patent publication US11180452B2, “Methods and compositions for selectively inhibiting pathogenic microbes” (priority 2019, dated 2021).
Converted amounts (≈) assume the structure as drawn. Where two headings read alike, the source gives them in different places.

Key:
Format in all cases: cell-based
[1] = tested on: Burkholderia thailandensis Brett et al ATCC: 700388; experiment: microbe, parasite or virus in culture
Bacillus subtilis = Bacillus subtilis MIC / MBC; settings: for MBC: Bacillus subtilis NRRL: B-571, minimum bactericidal concentration; for MIC: Bacillus subtilis (Ehrenberg 1835) Cohn 1872 NRRL: B-571, read-out: MIC
Bacillus thuringiensis = Bacillus thuringiensis Berliner ATCC: 10792; for MIC: Bacillus thuringiensis, read-out: MIC
Candida glabrata = Candida glabrata MIC / MFC; settings: Nakaseomyces glabratus, Candida glabrata #584 (Table 2); for MIC: read-out: MIC; for MFC: minimum fungicidal concentration, read-out: MFC
[2] = tested on: Francisella tularensis subsp. Holarctica Strain LVSR NR-597; experiment: microbe, parasite or virus in culture

## Cc1[nH]c2ccccc2c1Sc1ccc(Br)cc1 [Compound 172C, 3-((4-bromophenyl)thio)-2-methyl-1H-indole]
[1]
  MIC: > 50 µg/mL

## Brc1ccc(Sc2c[nH]c3cc(Br)ccc23)cc1 [Compound 174A, 6-bromo-3-((4-bromophenyl)thio)-1H-indole]
Bacillus subtilis
  MBC: 6.25 µg/mL (≈ 16.3 µM)
Bacillus subtilis; Bacillus subtilis
  MIC: 3.13 µg/mL (≈ 8.17 µM)
Bacillus thuringiensis
  MBC: 3.13 µg/mL (≈ 8.17 µM)
  MIC: 3.13 µg/mL (≈ 8.17 µM)
[1]
  MIC: > 50 µg/mL
Candida glabrata
  MIC: 12.5 µg/mL (≈ 32.6 µM)
[2]
  MIC: 1.56 µg/mL (≈ 4.07 µM)

## Brc1ccc2[nH]cc(Sc3ccccc3)c2c1 [Compound 174AA, 5-bromo-3-(phenylthio)-1H-indole]
Bacillus subtilis
  MBC: 16 µg/mL (≈ 52.6 µM)
Bacillus subtilis; Bacillus subtilis
  MIC: 4 µg/mL (≈ 13.1 µM)
Bacillus thuringiensis
  MBC: 16 µg/mL (≈ 52.6 µM)
  MIC: 8 µg/mL (≈ 26.3 µM)
[1]
  MIC: > 50 µg/mL
Candida glabrata
  MFC: 6.25 µg/mL (≈ 20.5 µM)
  MIC: 3.13 µg/mL (≈ 10.3 µM)
[2]
  MIC: 4 µg/mL (≈ 13.1 µM)

## Brc1ccc(Sc2c[nH]c3c(Br)cc(Br)cc23)cc1 [Compound 174AC, 5,7-dibromo-3-((4-bromophenyl)thio)-1H-indole]
Bacillus subtilis
  MBC: 16 µg/mL (≈ 34.6 µM)
Bacillus subtilis; Bacillus subtilis
  MIC: 8 µg/mL (≈ 17.3 µM)
Bacillus thuringiensis
  MBC: 50 µg/mL (≈ 108 µM)
  MIC: 8 µg/mL (≈ 17.3 µM)
[1]
  MIC: > 50 µg/mL
Candida glabrata
  MIC: 25 µg/mL (≈ 54.1 µM)

## Clc1c(Cl)c(Cl)c(Sc2c[nH]c3ccc(Br)cc23)c(Cl)c1Cl [Compound 174AD, 5-bromo-3-((perchlorophenyl)thio)-1H-indole]
Bacillus subtilis
  MIC: 16 µg/mL (≈ 33.6 µM)
  MBC: 50 µg/mL (≈ 105 µM)
Bacillus thuringiensis
  MBC: > 50 µg/mL
  MIC: 32 µg/mL (≈ 67.2 µM)
[1]
  MIC: > 50 µg/mL

## Clc1cc2[nH]cc(Sc3ccc(Br)cc3)c2cc1Br [Compound 174AF, 5-bromo-3-((4-bromophenyl)thio)-6-chloro-1H-indole]
Bacillus subtilis
  MBC: 50 µg/mL (≈ 120 µM)
Bacillus subtilis; Bacillus subtilis
  MIC: 4 µg/mL (≈ 9.58 µM)
Bacillus thuringiensis
  MBC: 4 µg/mL (≈ 9.58 µM)
  MIC: 2 µg/mL (≈ 4.79 µM)
[1]
  MIC: > 50 µg/mL
Candida glabrata
  MIC: > 50 µg/mL
[2]
  MIC: 4 µg/mL (≈ 9.58 µM)

## Clc1cc(Cl)c(Sc2c[nH]c3ccc(Br)cc23)c(Cl)c1 [Compound 174AG, 5-bromo-3-((2,4,6-trichlorophenyl)thio)-1H-indole]
Bacillus subtilis
  MBC: > 50 µg/mL
Bacillus subtilis; Bacillus subtilis
  MIC: 4 µg/mL (≈ 9.81 µM)
Bacillus thuringiensis
  MBC: > 50 µg/mL
  MIC: 4 µg/mL (≈ 9.81 µM)
[1]
  MIC: > 50 µg/mL
Candida glabrata
  MFC: > 50 µg/mL
  MIC: 6.25 µg/mL (≈ 15.3 µM)

## Brc1ccc2[nH]cc(Sc3cc(Br)c(Br)c(Br)c3)c2c1 [Compound 174AH, 5-bromo-3-((3,4,5-tribromophenyl)thio)-1H-indole]
Bacillus subtilis
  MBC: > 50 µg/mL
Bacillus subtilis; Bacillus subtilis
  MIC: 8 µg/mL (≈ 14.8 µM)
Bacillus thuringiensis
  MBC: > 50 µg/mL
  MIC: 8 µg/mL (≈ 14.8 µM)
[1]
  MIC: > 50 µg/mL
Candida glabrata
  MIC: > 50 µg/mL

## Clc1ccccc1Sc1c[nH]c2ccc(Br)cc12 [Compound 174AJ, 5-bromo-3-((2-chlorophenyl)thio)-1H-indole]
Bacillus subtilis
  MBC: 3.13 µg/mL (≈ 9.24 µM)
Bacillus subtilis; Bacillus subtilis
  MIC: 0.78 µg/mL (≈ 2.3 µM)
Bacillus thuringiensis
  MBC: 1.56 µg/mL (≈ 4.61 µM)
  MIC: 0.78 µg/mL (≈ 2.3 µM)
[1]
  MIC: > 50 µg/mL
Candida glabrata
  MFC: 25 µg/mL (≈ 73.8 µM)
  MIC: 6.25 µg/mL (≈ 18.5 µM)
